Reference: patent publication EP0533825B1, “ETHER LIPID-NUCLEOSIDE COVALENT CONJUGATES” (WAKE FOREST UNIVERSITY, priority 1990, dated 1991)

Experiments:
[1] = tested on: CEM-SS cells; assay: Cell cytotoxicity (Table 1); type: cell-based; conditions: read-out: Inhibitory Concentration50 For: Cell Cyto-toxicity
[2] = tested on: CEM-SS cells; assay: CEM-SS cell growth, 3H-Tdr pulse labelling to measure DNA synthesis; type: cell-based; conditions: Homo sapiens, 48 hours at 37°C, then 3H-Tdr pulse for 8 hours
Protocol: To determine the IC₅₀ for cell growth, CEM-SS cells in suspension culture (10,000 cells/ml RPMI-1640 growth medium) were incubated with serial dilutions of compound at 37°C for 48 hours and then pulsed labelled with 1 microCi of ³H-Tdr (SA = 20 Ci/mmole) for 8 hours at 37°C to measure DNA synthesis.

[3] = tested on: HIV-1; conditions: persistently infected monocyte/macrophage (U1) cells
Source text: Anti-HIV1 Activity of Lipid-Nucleoside Conjugates. […] In brief, CEM-SS cell monolayers were infected with HIV-1. […] Plaques were counted at five days after infection. In this assay HIV-1 syncytial plaques are seen as large, multicellular foci (10 to 25 nuclei/syncytium) that appear either brown and granular or clear. Silnce the number of HIV-1 syncytial plaques correlates with reverse transcriptase (RT) and p24 core antigen activity in the HIV-1 infected cell overlay fluids, the syncytial plaque assay can be used to quantify the amount of infectious virus. […] The activity of p24 core antigen induced by HIV-1 infection of CEM-SS cells was measured spectrophotometrically using the commercial Coulter EIA.
(§1) Anti-HIV1 Activity of Lipid-Nucleoside Conjugates in Monocyte/Macrophages. Monocyte/macrophages represent a major reservoir of HIV-1 in the infected human host. […] However, these cells tend to be resistent to dideoxynucleoside prodrugs due to low levels of kinases needed to activate the prodrugs. See C. […]

[4] = tested on: HIV-1; conditions: persistently infected monocyte/macrophage (U1) cells; remark: listed apart in the source
Source text: as §1

Row | Compound | IC50 ([1]; Homo sapiens, CEM-SS) | IC50 [2] | other results
1 | CCCCCCCCCCCCCCCCSCC(COP(=O)(O)OC[C@H]1O[C@@H](n2cc(C)c(=O)[nH]c2=O)C[C@@H]1N=[N+]=[N-])OC (stereo partly drawn) [Compound C, 3'-Azido-3'-deoxythymidine-5'-monophosphate-D,L-3-hexadecylthio-2-methoxypropane] | 29.2 ± 5.7 µM |  | 
2 | CCCCCCCCCCCCCCCCOCC(COP(=O)([O-])OC(CC(=O)OC[C@H]1O[C@@H](n2cc(C)c(=O)[nH]c2=O)C[C@@H]1N=[N+]=[N-])C[N+](C)(C)C)OCC (stereo partly drawn) [Compound AA, 3'-Azido-3'-deoxythymidine-5'-butyrate-γ-N,N,N-trimethyl-ammonium-β-(1-phospho-2-ethoxy-3-hexadecyloxypropane)] |  | 13.5 µM | 
3 | 3'-Azido-3'-deoxythymidine-5'-monophosphate-D,L-3-octadecanamido-2-ethoxypropane [Compound A] |  |  | IC50 [1]: 53.8 µM
4 | O=c1[nH]cnc2c1ncn2[C@H]1CC[C@@H](CO)O1 [DDI, dideoxyinosine] | > 100 µM |  | 
5 | CCCCCCCCCCCCCCCCCC(=O)NCC(COP(=O)([O-])OC(CC(=O)OC[C@H]1O[C@@H](n2cc(C)c(=O)[nH]c2=O)C[C@@H]1N=[N+]=[N-])C[N+](C)(C)C)OCC (stereo partly drawn) [BB, 3'-Azido-3-deoxythymidine-5'-butyrate-γ-N,N,N-trimethyl-ammonium-β-(1-phospho-2-ethoxy-3-octadecanamidopropane)] |  | 13.7 µM | 
6 | CCCCCCCCCCCCCCCCOCC(COP(=O)(O)OC[C@H]1O[C@@H](n2cc(C)c(=O)[nH]c2=O)C[C@@H]1N=[N+]=[N-])OCC (stereo partly drawn) [Compound B, 3'-Azido-3'-deoxythymidine-5'-monophosphate-D,L-3-hexadecyloxy-2-ethoxypropane] | 35 ± 2.1 µM |  | 
7 | Cc1cn([C@H]2C[C@H](N=[N+]=[N-])[C@@H](CO)O2)c(=O)[nH]c1=O [AZT, 3'-azido-3'-deoxythymidine] | 5.6 µM | 5.1 µM | Percent of Control (RT DPM) [3]: 90% of Control; Percent of Control (p24 Core Ag) [3]: 101% of Control; Percent of Control (PFU) [4]: 87% of Control
